Data taken from patent publication US20210015883A1, “A NOVEL SYNERGIC HERBAL FORMULATION FOR THE PREVENTION AND TREATMENT OF PRE-DIABETES, DIABETES AND OTHER INSULIN RESISTANCE CASES” (priority 2018, published 2021).

Key:
[1] = system: high fat diet and Streptozotocin (stz) induced insulin resistance in rats; assay: Matsuda index from OGTT in high fat diet + STZ rats; assay type: in vivo, Albino Wistar rats; conditions: Metformin 120 mg/kg p.o., HFD+STZ rats, value less than 4.3 indicates insulin resistance
Protocol: (§1) After 2 weeks of dietary manipulation, the group of rats fed with HFD were injected a single low dose of STZ (40 mg/kg, i.p), while the Normal control rats were given the vehicle citrate buffer (pH 4.4) in a dose volume of 1 mL/kg, i.p. The fasting blood glucose (FBG) were measured 3 days after the STZ injection. […] The rats were allowed to continue to feed on their respective diets until the end of the study. All FBG and insulin levels were determined on different days viz. 18th day (3rd day after STZ injection), 25th, 32nd, 39th and 45th days (24 h after the previous dose) by collecting blood from the tail vein/retro orbital plexus. On the 44th day Oral Glucose Tolerance Test (OGTT) was performed wherein animals of all groups received glucose solution (1.5 g/kg) 30 minutes after the above treatments. Blood glucose and insulin levels were determined at 0, 30, 60, 90, 120 min after glucose administration. Blood glucose levels were measured using a digital glucometer. Insulin was assayed by using a RIA kit.

[2] = system: high fat diet and Streptozotocin (stz) induced insulin resistance in rats; assay: QUICKI insulin sensitivity index in high fat diet + STZ rats; assay type: in vivo, Albino Wistar rats; conditions: HFD+STZ rats
Protocol: (§2) The rats were allocated into dietary regimens by feeding HFD (58% fat, 25% protein and 17% carbohydrate, as a percentage of total kcal) and drinking water ad libitum, respectively, for the initial period of 2 weeks. After 2 weeks of dietary manipulation, the group of rats fed with HFD were injected a single low dose of STZ (40 mg/kg, i.p), while the Normal control rats were given the vehicle citrate buffer (pH 4.4) in a dose volume of 1 mL/kg, i.p. The fasting blood glucose (FBG) were measured 3 days after the STZ injection. The rats with FBG of more than 250 mg/dL were considered diabetic and selected for further pharmacological studies and their dosing with the Herbal formulations commenced and continued for the next 28 days. The rats were allowed to continue to feed on their respective diets until the end of the study. All FBG and insulin levels were determined on different days viz. 18th day (3rd day after STZ injection), 25th, 32nd, 39th and 45th days (24 h after the previous dose) by collecting blood from the tail vein/retro orbital plexus. On the 44th day Oral Glucose Tolerance Test (OGTT) was performed wherein animals of all groups received glucose solution (1.5 g/kg) 30 minutes after the above treatments. Blood glucose and insulin levels were determined at 0, 30, 60, 90, 120 min after glucose administration. Blood glucose levels were measured using a digital glucometer. Insulin was assayed by using a RIA kit.
Quantitative insulin sensitivity check index (QUICKI) is an empirically-derived mathematical transformation of fasting blood glucose and plasma insulin concentrations that provide a consistent and precise ISI with a better positive predictive power. It is simply a variation of HOMA equations, as it transforms the data by taking both the logarithm and the reciprocal of the glucose-insulin product, thus slightly skewing the distribution of fasting insulin values. […] It employs the use of fasting values of insulin and glucose as in HOMA calculations. QUICKI is virtually identical to the simple equation form of the HOMA model in all aspects, except that a log transform of the insulin glucose product is employed to calculate QUICKI. The QUICKI can be determined from fasting plasma glucose (mg/dl) and insulin (μIU/ml) concentrations.
QUICKI values range between 0.45 in healthy individuals (noted as unusually healthy in the original study) and 0.30 in diabetics. Lower values reflect greater resistance with values below 0.339 indicating insulin resistance.

[3] = system: high fat diet and Streptozotocin (stz) induced insulin resistance in rats; assay: HOMA-IR insulin resistance index in high fat diet + STZ rats; assay type: in vivo, Albino Wistar rats; conditions: HFD+STZ rats
Protocol: as §1
Insulin resistance is calculated using the following methods: […]
HOMA is a model of the relationship of glucose and insulin dynamics that predicts fasting steady-state glucose and insulin concentrations for a wide range of possible combinations of insulin resistance and β-cell function. Insulin levels depend on the pancreatic β-cell response to glucose concentrations while, glucose concentrations are regulated by insulin-mediated glucose production via the liver. Thus, deficient β-cell function will echo a diminished response of β-cell to glucose-stimulated insulin secretion. Similarly, insulin resistance is reflected by the diminished suppressive effect of insulin on hepatic glucose production. […] HOMA describes this glucose-insulin homeostasis by means of a set of simple, mathematically-derived nonlinear equations. The approximating equation for insulin resistance has been simplified; it uses a fasting blood sample. It is derived from the use of the insulin-glucose product, divided by a constant.
The product of FPG×FPI is an index of hepatic insulin resistance.
I0—Fasting plasma insulin concentration (mIU/L), G0—Fasting plasma glucose concentration (mg/dL),

[4] = system: high fat diet and Streptozotocin (stz) induced insulin resistance in rats; assay: Fasting blood glucose levels in high fat diet + STZ rats; assay type: in vivo, Albino Wistar rats
Protocol: (§3) Evaluation of antidiabetic effect of herbal formulation against high fat diet and Streptozotocin (stz) induced insulin resistance in rats.
(§4) Rats were divided 5 into groups of 8 rats each and treated in the following way:
Group I Normal control group—Received normal chow diet and drinking water daily for 45 days and citrate buffer (1 mL/kg, i.p) on the 15th day of start of experiment.
Group II Toxicant Control: Received HFD throughout the experiment (45 days) and STZ (40 mg/kg, i.p) on the 15th day of start of experiment.
(§5) Group III Herbal formulation I as per Example 4 (500 mg): Received HFD throughout the experiment (45 days), STZ (40 mg/kg, i.p) on the 15th day of start of experiment and the Herbal formulation (500 mg/kg, p.o) from the 18th day for the next 28 days.
(§6) Group IV Herbal formulation II as per Example 4 (1000 mg): Received HFD throughout the experiment (45 days), STZ (40 mg/kg, i.p) on the 15th day of start of experiment and the Herbal formulation (1000 mg/kg, p.o) from the 18th day for the next 28 days.
(§7) Group V Reference standard: Receive HFD throughout the experiment (45 days), STZ (40 mg/kg, i.p) on the 15th day of start of experiment and Metformin, (120 mg/kg) from the 18th day for the next 28 days.
as §2
(§8) √—Correction of the nonlinear values distribution. • A. Animals used: 40 • B. Species/Common name: Albino Wistar rats • C. Age/weight/size: Ten weeks, 150-180 g • D. Gender: Male • E. Number to be used (Year-wise breakups and total figures needed to be given): 40 • F. Number of days each animal will be housed: 3 months • G. Details of injections schedule: • H. Details of withdrawal: • Volumes: 2 mL per animal by retro-orbital plexus for insulin assay and 0.1 mL by tail vein for blood glucose. • I. Sites: Retro-orbital plexus, tail vein

[5] = system: high fat diet and Streptozotocin (stz) induced insulin resistance in rats; assay: Oral glucose tolerance test (OGTT) on day 44 in high fat diet + STZ rats; assay type: in vivo, Albino Wistar rats; conditions: Metformin 120 mg/kg p.o., HFD+STZ rats
Protocol: as §3, §5, §6, §7, §2, §8

[6] = system: high fat diet and Streptozotocin (stz) induced insulin resistance in rats; assay: Insulin levels in high fat diet + STZ rats (RIA); assay type: in vivo, Albino Wistar rats; conditions: HFD+STZ rats
Protocol: as §3, §4, §5, §6, §7, §2, §8

[7] = system: PPAR gamma; assay: PPAR gamma gene expression by Real Time PCR in differentiated 3T3L1 adipocytes; assay type: cell-based; conditions: SC = Pioglitazone 6 μg/ml, 12th day, control = 1
Protocol: Samples of Herbal formulation were evaluated over a concentration range from 0.5 to 10 μg/ml. Pioglitazone, a known anti-diabetic agent was used as the standard control at a dose of 6 μg/ml; a dose extrapolated from the median therapeutic human dose. The Herbal formulation was dissolved in NAOH (0.1N).
Viability studies were carried out to eliminate cytotoxic concentrations of the samples using MTT assay. Based on the results of the MTT assay, the following concentrations were used for the PPAR Expression studies. Concentration selected was as follows 2.5, 5, 10 μg/ml.
3T3L1 Fibroblasts were grown in DMEM medium, supplemented with 10% FBS, in a humidified atmosphere of 5% CO2 at 370 C. […]
On the 12th day after differentiation, total RNA was extracted with TRIzol reagent according to the manufacturer's instructions from the differentiated adipocytes. The concentration and purity of RNA were determined by measuring the absorbance at 260 nm (A260) and the ratio of the absorbance at 260 nm to the absorbance at 280 nm (A260/A280), respectively. […] SYBR Green chemistry was used to perform the quantitative determination of the relative expression of PPAR gene. The PPAR gene was analyzed using the Rotogene Q; Qiagen real-time polymerase chain reaction machine. […]

[8] = Metformin 120 mg/kg p.o. group, Day 18 (start of treatment)
[9] = Metformin 120 mg/kg p.o., Day 25
[10] = Metformin 120 mg/kg p.o., Day 32
[11] = Metformin 120 mg/kg p.o., Day 39
[12] = Metformin 120 mg/kg p.o., Day 45

For `CN(C)C(=N)N=C(N)N` [Metformin], the “Matsuda Index” value [1] was 12.56, the QUICKI [2, 8] was 0.24 ± 0.0057 and the QUICKI [2, 9] was 0.276 ± 0.0021. It also gave a QUICKI [2, 10] of 0.26 ± 0.0042, a QUICKI [2, 11] of 0.27 ± 0.0055 and a QUICKI [2, 12] of 0.29 ± 0.0030. For the same molecule, the HOMA-IR [3, 8] was 31.7 ± 4.75, the HOMA-IR [3, 9] was 9.91 ± 0.69 and the HOMA-IR [3, 10] was 15.8 ± 2.76. For the same molecule, the HOMA-IR [3, 11] was 10.56 ± 1.7, the HOMA-IR [3, 12] was 5.81 ± 0.39 and the “course of BGL over 4 weeks of treatment (in words)” value ([4]; HFD+STZ rats) was “gradual decrease in BGL”. It also gave a Blood glucose level ([4]; Metformin 120 mg/kg p.o. group, HFD+STZ rats, Day 1 (before treatment, dosing from day 18)) of 126.87 ± 2.41 mg/dL, a Blood glucose level ([4]; Metformin 120 mg/kg p.o. group, HFD+STZ rats, Day 7 (before treatment)) of 138.63 ± 1.54 mg/dL and a Blood glucose level ([4]; Metformin 120 mg/kg p.o. group, HFD+STZ rats, Day 15 (before treatment)) of 156.37 ± 3.17 mg/dL. The Blood glucose level ([4]; Metformin 120 mg/kg p.o. group, HFD+STZ rats, Day 18 (3rd day after STZ, start of treatment)) was 396.67 ± 43.72 mg/dL, the Blood glucose level ([4]; Metformin 120 mg/kg p.o., HFD+STZ rats, Day 25) was 183.167 ± 13.58 mg/dL and the Blood glucose level ([4]; Metformin 120 mg/kg p.o., HFD+STZ rats, Day 32) was 245.167 ± 28.86 mg/dL. The Blood glucose level ([4]; Metformin 120 mg/kg p.o., HFD+STZ rats, Day 39) was 191.83 ± 25.08 mg/dL, the Blood glucose level ([4]; Metformin 120 mg/kg p.o., HFD+STZ rats, Day 45) was 152.83 ± 8.40 mg/dL and the “BGL at the end of the study compared with the HFD+STZ group (in words)” value ([4]; treatment groups) was “significantly lower”. The “OGTT Glucose” value ([5]; 0 Min after glucose 1.5 g/kg) was 129.5 ± 1.17 mg/dL, the “OGTT Insulin” value ([5]; 0 Min after glucose 1.5 g/kg) was 13.12 ± 0.97 mIU/L and the “OGTT Glucose” value ([5]; 30 Min after glucose 1.5 g/kg) was 249.50 ± 0.56 mg/dL. The “OGTT Insulin” value ([5]; 30 Min after glucose 1.5 g/kg) was 27.308 ± 1.4 mIU/L, the “OGTT Glucose” value ([5]; 90 Min after glucose 1.5 g/kg) was 185.167 ± 2.08 mg/dL and the “OGTT Insulin” value ([5]; 90 Min after glucose 1.5 g/kg) was 22.72 ± 1.49 mIU/L. For the same molecule, the “OGTT Glucose” value ([5]; 120 Min after glucose 1.5 g/kg) was 149.83 ± 2.81 mg/dL, the “OGTT Insulin” value ([5]; 120 Min after glucose 1.5 g/kg) was 14.95 ± 1.035 mIU/L and the Insulin level ([6]; Metformin 120 mg/kg p.o. group, date printed as "—" (first reading)) was 31.56 ± 1.95 mIU/L. It also gave an Insulin level [6, 9] of 22.56 ± 2.24 mIU/L, an Insulin level [6, 10] of 27.84 ± 5.014 mIU/L and an Insulin level [6, 11] of 23.40 ± 3.47 mIU/L. For the same molecule, the Insulin level [6, 12] was 15.36 ± 0.58 mIU/L.

In the case of `CCc1ccc(CCOc2ccc(CC3SC(=O)NC3=O)cc2)nc1` (centres unmarked) [Pioglitazone], the “2^-DDCT (relative PPAR gamma mRNA expression)” value [7] is reported as 2.292.
